{
  "source": "patent US6541237B1",
  "about": "“A-1,4-glucan lyase and its use in the production of 1.5-androfructose” (Danisco A/S, priority 1994, dated 2003)",
  "key": {"α-1,4-glucan lyase": {"system": "α-1,4-glucan lyase", "assay": "Formation of AF from amylopectin (HPLC), end-product inhibition", "format": "biochemical", "conditions": "equal AF after 30 and 120 min incubation", "description": "α-1,4-glucan lyase according to the present invention hydrolyses starch to the end-product 1,5-anhydrofructose. The end-product was shown by HPLC, method 2. The enzyme assay contained 500 μl amylopectin (20 mg/ml, dissolved in H2O), 400 μl 0.1 M MES pH 6.3 and 100 μl purified enzyme. The reaction mixture was incubated at 30° C. and the reaction was stopped by boiling after 30 or 120 min incubation. High-molecular oligosaccharides were precipitated by addition of 3 vol abs. ethanol and the sample was centrifuged and freeze-dried as described above. The samples were dissolved in 125 μl H2O and 25 μl were applied on the HPLC column."}, "[1]": {"assay": "Reduction of 3,5-dinitrosalicylic acid", "format": "physicochemical"}, "[2]": {"assay": "Induction period of 50% mayonnaise in bomb calorimeter", "conditions": "+500 ppm in mayonnaise; 80° C., pure O2", "description": "In the test procedure the anti-oxidants were added to the mayonnaise to provide an anti-oxidant concentration in the order of about 500 ppm. The mayonnaise was then placed in a bomb calorimeter at temperature 80° C. containing pure O2. An induction period to the onset of substantial oxidation of the product is then measured."}, "[3]": {"assay": "Electrochemical oxygen consumption in methyl linoleate emulsion", "conditions": "AF 15, 146 and 680 μM; metmyoglobin initiated; 25.0° C.", "description": "The activity of AF was investigated in a methyl linoleate emulsion as described by Jorgensen and Skibsted (Z. Lebensm. Unters. Forsch. (1993) 196: 423-429) with minor modifications: To 5.00 ml of a 1.33 mM methyl linoleate emulsion in 5.0 mM aqueous phosphate buffer with pH=5.8 and 0.2 w/w % Tween 20 as emulsifier was added AF in the following concentrations: 0, 15, 146 and 680 μM. The oxidation in the system was initiated by addition of 50 μl […] metmyoglobin (MMb) final concentration 0.26 mM. Immediately after initiating the reaction the sample was injected to a thermostated (25.0±0.1° C.) 70 μl closed cell, effectively excluding diffusion of oxygen into the system. The oxygen consumption was measured by a Clark electrode, which was connected to a PC data collection program. The relative oxygen concentration (%) was registered every 30 s."}, "[4]": {"assay": "Induction period of yogurt salad dressing with 50% oil", "text": "For each temperature defined as PF=IP of the oil with added antioxidant/IP of the same oil without added antioxidant"}, "Oxidation of AF by air": {"assay": "Oxidation of AF by air", "format": "physicochemical", "conditions": "especially at high temperature, high AF concentration, long exposure", "text": "Catalase is needed to dispel H2O2 formed. H2O2 will oxidize AF into two new compounds which are at present of unknown structure. The other impurities in the AF preparation are the oxidation products of AF. […] Gluconic acid was removed together with the buffer salts by ion exchange chromatography."}, "[5]": {"assay": "ESR analysis of hydroxyl radical scavenging (Fenton reaction, DMPO spin trap)", "conditions": "for Peak height of ESR-spectra [120 s] / Peak height of ESR-spectra [300 s]: H2O2 0.17 mM, Fe2+ 4.8 μM", "description": "Hydroxyl radicals were generated by a Fenton reaction with H2O2 (0.17 mM) and FeSO4 (4.8 μM). The generated radicals were trapped by 5,5-dimethyl-1-pyrroline N-oxide (DMPO, 9.7 mM). AF was added in concentrations of 1.3 mM and 6.3 mM. A water soluble extract of rosemary (Rosmarinus officinalis L.) was analyzed in a concentration of 0.25 mg/ml (in grams equivalent to 1.26 mM AF). Measurements were carried out at room temperature (20±1° C.) after 120 s and repeated for the same reaction mixture after 300 s with the following spectrometer settings: Center field 3475.60 G; sweep width 55 G; microwave power 20 mW; modulation frequency 100 kHz; modulation amplitude 1.01 G; receiver gain 1.00·10^5; conversion time 81.92 ms time constant 163.84 ms and sweep time 83.89 s.\nThe spin adduct gives rise to a characteristic 1:2:2:1 ESR spectrum. The peak height of the spectrum is proportional to the quantitative amount of generated spin adduct. Addition of both DMPO and AF will set up a competition between the spin trap and AF. A reduction of peak height will indicate a good scavenging activity of AF."}},
  "data": [
    {"smiles": "O=C1CO[C@H](CO)[C@@H](O)[C@@H]1O", "note": "[AF, 1,5-D-anhydrofructose]", "values": [
      {"measurement": "inhibition of enzyme activity by end-product", "setting": "α-1,4-glucan lyase", "result": "not inhibited"},
      {"measurement": "reducing agent (antioxidant) activity", "setting": "[1]", "result": "can easily reduce 3,5-dinitrosalicylic acid"},
      {"measurement": "IP hours (Induction Period)", "setting": "[2]", "result": "32,0 hours"},
      {"measurement": "oxygen consumption curve", "setting": "[3]", "result": "lag-phase is observed"},
      {"measurement": "IP hours (Induction Period)", "setting": "[4]; 500 ppm in yogurt salad dressing", "result": 39.5, "unit": "h"},
      {"measurement": "PF (Protection Factor)", "setting": "[4]; 500 ppm, IP with antioxidant / IP without", "result": 1.06},
      {"measurement": "oxidation by air-level of oxygen", "setting": "Oxidation of AF by air", "result": "can slowly be oxidized"},
      {"measurement": "scavenging activity of hydroxyl radicals", "setting": "[5]; 1.3 mM AF", "result": "no scavenging activity"},
      {"measurement": "Peak height of ESR-spectra [120 s]", "setting": "[5]; 1.3 mM AF", "result": 2634},
      {"measurement": "Peak height of ESR-spectra [300 s]", "setting": "[5]; 1.3 mM AF", "result": 2545},
      {"measurement": "scavenging activity of hydroxyl radicals", "setting": "[5]; 6.3 mM AF", "result": "peak height is reduced"},
      {"measurement": "Peak height of ESR-spectra [120 s]", "setting": "[5]; 6.3 mM AF", "result": 1781},
      {"measurement": "Peak height of ESR-spectra [300 s]", "setting": "[5]; 6.3 mM AF", "result": 1900}
    ]}
  ]
}
